Legend:
cancer = assay: Chart review of treatment outcomes by level of hypoxia; format: in vivo, human
Experimental: A chart review analysis is performed to determine the efficacy of elesclomol for the treatment of cancer based on the level of hypoxia of the tumor based on markers assessed during the treatment of the subjects. […] Subjects who were treated with elesclomol for whom no levels of hypoxic markers were determined can be used as an unstratified control group to understand the efficacy of elesclomol on a treatment population not selected based on the level of hypoxia in the subject/tumor. Alternatively, the population analyzed in the study for which hypoxia levels (e.g., LDH marker levels) can be compared to historical control samples in which an unstratified population was analyzed for response to elesclomol. […] Preferably, the same marker(s) of hypoxia is measured in each of the subjects, e.g., at least one isoform or subunit of lactate dehydrogenase (LDH) or hypoxia inducible factor (HIF); at least one pro-angiogenic form of vascular endothelial growth factor (VEGF), phosphorylated VEGF receptor (pKDR) 1, 2, or 3; neurolipin 1 (NRP-1), pyruvate dehydrokinase (PDH-K), and ornithine decarboxylase (ODC). […]

solid tumors = assay: Trial of elesclomol in subjects with solid tumors stratified by level of hypoxia; format: in vivo, human; conditions: elesclomol alone or in combination
Description: Subjects diagnosed with solid tumors are recruited for a study to determine the efficacy of elesclomol in the treatment of solid tumors, preferably tumors from the same tissue origin, e.g., breast, prostate, lung, liver, brain, colorectal, etc. Inclusion criteria include the presence of a solid tumor. Exclusion criteria include the presence of an ischemia related disease or disorder including, e.g., ischemic heart or vascular disease, poor circulation, diabetes, macular degeneration, recent stroke, or other ischemic events or conditions; or surgery planned during the duration of the trial. […]
All subjects are treated with elesclomol, either alone or in combination with one or more additional chemotherapeutic agents. […] Subjects are monitored for response to the agent throughout the trial, at the end of the trial, and at regular intervals after the conclusion of the trial using routine methods including, but not limited to, e.g., imaging, hematology, and physical examination. […] Preferably, the subjects continue to be monitored for outcomes beyond the formal end of the trial. […]
An analysis of the samples collected from subjects prior to and optionally during treatment is performed to determine the efficacy of elesclomol for the treatment of cancer based on the level of hypoxia of the tumor based on markers assessed prior to and optionally during the treatment of the subjects. […]

In the case of `CN(NC(=O)CC(=O)NN(C)C(=S)c1ccccc1)C(=S)c1ccccc1` [Elesclomol, N-malonyl-bis(N′-methyl-N′-thiobenzoylhydrazide)], the “response of subjects with a low level of hypoxia compared to a high level of hypoxia” value (cancer) is reported as “better response” and the “response of subjects with a low level of hypoxia compared to a high level of hypoxia” value (solid tumors) is reported as “better response”.

From patent US20120128580A1, “PRESELECTION OF SUBJECTS FOR THERAPEUTIC TREATMENT WITH ELESCLOMOL BASED ON HYPOXIC STATUS” (SYNTA PHARMACEUTICALS CORP., priority 2010, published 2012)
